Where a name gives a salt, the structure may show the parent alone. Some results are limits rather than exact numbers.

For one experiment, the system named is Human ES cell line KhES3. As to the kind of experiment: Differentiation of human ES cell line KhES3 into insulin producing cells, flow cytometry. It counts as cell-based. The following applies: step 3 with 4 factors plus 0.001-20 mM sodium cromoglicate, 12 days. From the text:
Human ES cell line KhES3 was obtained from Kyoto University and maintained in the manner as shown in H. Suemori et al. (2006), Biochem. Biophys. Res. Commun., 345:926-932, the contents of this document is herein incorporated by reference. The cells of KhES3 were differentiated into insulin producing cells according to the steps shown below. The colonies of the human ES cell line grown to approximately 70% confluent in the culture plate were dissociated from the plate by using CTK solution (Reprocell). The dissociated colonies were then divided into single cells using Accutase™ and seeded in 24 well plates (Greiner) at 2.0×10^5/well. The cells were cultured in RPMI medium containing 2% FBS added with activin A (100 ng/ml) and CHIR99021 (3 μM) for 5 days. During this period, the medium was changed with the same fresh medium on the third and the fourth days. The cells obtained in Step 1 were cultured in improved MEM Zinc Option medium containing 1% B-27 (Invitrogen Corp.) comprising dorsomorphin (1 μM), retinoic acid (2 μM), and SB431542 (10 μM) for 6 days. During this period, the medium was changed with the same fresh medium every two days. […] The obtained cells were treated by using BD Cytofix/Cytoperm™ Kit and then, stained with polyclonal guinea-pig anti Swine insulin antibody/anti-serum (DAKO) and analyzed using flow cytometry to determine the number of insulin producing cells.
(In general: In flow cytometry, cells or beads pass a laser one at a time.)

For experiment [1], the system named is Human iPS cell line 201B7. Briefly: Differentiation of human iPS cell line 201B7 into insulin producing cells (step 3 with 4 factors), flow cytometry. In kind it is cell-based. The method, then:
Human iPS cell line 201B7 (this cell line can be obtained from Center for iPS Cell Research And Application, Kyoto University, Takahashi K et al, Cell. 2007 131:861-72., the contents of this document is incorporated herein by reference) was used. The iPS cells were differentiated into insulin producing cells by using the following steps. The colonies of the iPS cell line were grown to 70% confluent in the culture plate and dissociated from the plate by using CTK solution (Reprocell). The dissociated colonies were then divided into single cells using Accutase™ and seeded in 24 well plates (Greiner) at 2.0×10^5/well. The cells were cultured in RPMI medium containing 2% FBS added with activin A (100 ng/ml) and CHIR99021 (3 μM) for 5 days. During this period, the medium was changed with the same fresh medium on the third and the fourth days. The cells obtained in Step 1 were cultured in improved MEM Zinc Option medium containing 1% B-27 (Invitrogen Corp.) added with dorsomorphin (1 μM), retinoic acid (2 μM), and SB431542 (10 μM) for 6 days. During this period, the medium was changed with the same fresh medium every two days. The cells obtained in Step 2 were cultured in improved MEM Zinc Option medium containing 1% B-27 (Invitrogen Corp.) added with forskolin (10 μM), nicotinamide (10 mM), dexamethasone (10 μM), ALK5 inhibitor II ((2-(3-(6-methylpyridin-2-yl)-1H-pyrazol-4-yl)-1,5-naphthyridine)) (5 μM) and sodium cromoglicate (0.001 mM, 0.01 mM, 0.1 mM, 1 mM, 5 mM, 10 mM or 20 mM) for more 12 days. During this period, the medium was changed with the same fresh medium every four days. The obtained cells analyzed using flow cytometry to determine the number of insulin producing cells in the same manner as Example 1. The addition of 1 mM or more sodium cromoglicate in the culture medium increased the ratio of insulin positive cells and the maximum insulin positive cell-ratio was obtained when 10 mM sodium cromoglicate was added (FIG. 1A). Insulin production was confirmed by immune staining of the cells (FIG. 1B). Further, cells were stained with anti-human C-peptide antibody (Peninsula Laboratories LLC.) and analyzed by flow cytometry to see the production of C-peptide which is obtained by processing of pro-insulin. […] The highest ratio of the insulin positive cells was obtained by 12 days-culture in step 3. […] (FIG. 2B) Cells from cell line 201B7 were subjected to steps 1 and 2 in the same manner as above and cultured for 12 days in step 3. The obtained cells were stained with Ki67 and the ability of the cells to proliferate was evaluated. […] In addition, the obtained cells were treated by using BD Cytofix/Cytoperm™ Kit and stained with monoclonal anti-glucagon clone K79bB10 (SIGMA). The cells were analyzed by flow cytometry to determine the number of the glucagon positive cells.

Experiment [2] has as its system iPS cell lines 418C1, 409B2 and 201B7. Briefly: Differentiation of three iPS cell lines into insulin positive cells. It counts as cell-based, human. The following applies: 10 mM in step 3 vs control; all three iPS cell lines; FIG. 2A. From the text: Three iPS cell lines, 418C1 and 409B2 (Okita K, et al, Nat Methods. 2011 8:409-412) and 201B7, all of which were generated from fibroblast cells, can be obtained from Center for iPS Cell Research and Application, Kyoto University. The iPS cell lines obtained from Kyoto University were differentiated into insulin positive cells by subjecting the cells to the same steps as those in Examples 1 and 2 with the exception that the concentration of sodium cromoglicate in the culture medium used in step 3 was 10 mM.

The test system of another experiment is cell line 201B7. Briefly: Ki67 staining, ability of differentiated cells to proliferate. It counts as cell-based, human. Conditions: 10 mM, 12 days in step 3, FIG. 3. The method, then: Cells from cell line 201B7 were subjected to steps 1 and 2 in the same manner as above and cultured for 12 days in step 3. The obtained cells were stained with Ki67 and the ability of the cells to proliferate was evaluated. […] In addition, the obtained cells were treated by using BD Cytofix/Cytoperm™ Kit and stained with monoclonal anti-glucagon clone K79bB10 (SIGMA). The cells were analyzed by flow cytometry to determine the number of the glucagon positive cells.

`O=C(O)c1cc(=O)c2c(OCC(O)COc3cccc4oc(C(=O)O)cc(=O)c34)cccc2o1` [sodium cromoglicate, sodium salt of 1,3-Bis(2-carboxychromon-5-yloxy)-2-hydroxypropane]: the “ratio of insulin positive cells” value in the experiment with Human ES cell line KhES3 is “increased the ratio of insulin positive cells in a concentration dependent manner”; in experiment [1] (10 mM, 12 days in step 3, FIG. 4) it was “increased the ratio of both insulin positive cells and glucagon positive cells”; in experiment [2] it was “ratio of insulin positive cells were increased”. Moreover, the “ratio of insulin positive cells by culture period in step 3” value in experiment [1] (10 mM, 8, 12 and 16 days in step 3, FIG. 2B) was “increased in the groups cultured for 8 days, 12 days and 16 days”. The “effect on ratio of insulin positive cells, 4 days in step 3” value in experiment [1] (10 mM, 4 days in step 3, FIG. 2B) was “also confirmed, although the efficiency was low”. For the same compound, the “ratio of glucagon positive cells” value in experiment [1] (10 mM, 12 days in step 3, anti-glucagon flow cytometry, FIG. 4) is “increased the ratio of both insulin positive cells and glucagon positive cells”. For the same compound, the “culture period in step 3 giving the highest ratio of insulin positive cells” value in experiment [1] (10 mM, FIG. 2B) turned out to be 12 days. Also, the “production of C-peptide” value in experiment [1] (anti-human C-peptide antibody, flow cytometry, FIG. 1C) is “increased by addition of sodium cromoglicate in a dose dependent manner”. Also, the “concentration giving the maximum insulin positive cell-ratio” value in experiment [1] (step 3 12 days, FIG. 1A) amounted to 10 mM. For the same compound, in experiment [1] (step 3 12 days, FIG. 1A), the “concentration in the culture medium that increased the ratio of insulin positive cells” value was at least 1 mM. Moreover, the “number of Ki67 positive cells, presence vs absence” value in the experiment on cell line 201B7 is “no substantial difference”.

The values above are taken from patent publication US9796962B2, “Method for generating pancreatic hormone-producing cells” (Kyoto University, priority 2013, dated 2017).
